{"source": "paper PMC6353901", "about": "“Systematic characterization of position one variants within the lantibiotic nisin” (Scientific Reports, 2019)", "data": [{"test_system": "NisP", "test": "Leader peptide cleavage of pre-nisin variants by NisP (RP-HPLC)", "assay_type": "biochemical, Lactococcus lactis", "details": "in vitro cleavage of the leader peptide from purified pre-nisin (variant) by purified secreted NisP, overnight at 8 °C, integration of leader peptide peaks", "excerpt": "Step IV concerns leader peptide cleavage and thereby activation of the purified pre-nisin variants. Here, we used the secreted variant of the natural leader peptidase NisP, by which the leader peptide is cleaved in vitro and the cleavage efficiency (%) can be calculated as recently shown. We used an RP-HPLC set-up to monitor product formation, in which the appearance of the leader peptide in the chromatograms was used to determine the concentration of activated nisin (Supplementary Fig. S3). […] The nisin core peptide eluted at a later retention time of approximately 23 min (Supplementary Fig. S3). […] However, in the case of the I1 mutants I1A, I1G, I1T, I1S, I1K, I1R, I1H, I1Q, I1E, I1N and I1D) the formation of a core peptide peak in terms of a new and separated peak in the chromatogram was not observed (Supplementary Fig. S4). Rather, the peaks with a retention time between 18–21 min contained both species, the cleaved and non-cleaved lantibiotic, and can therefore not be deconvoluted for proper determination of the amount of activated nisin. […] The concentration was calculated based on a standard calibration curve (Supplementary Fig. S5), where we precisely determined the concentration of the activated nisin or I1 mutants. We used this concentration determination instead of the colorimetric protein concentration determination as for example Bradford or the BCA-assay since the latter two assays cannot differentiate between the activated and non-activated form of the secreted variants. Since nisin is not active unless the leader is cleaved off, the determination of the area of the leader peak to calculate the amount of the activated lantibiotic directly relates to the antimicrobial activity without need to further purify the peptide after cleavage.\nAll I1 mutations were subjected to NisP cleavage and most of the variants were cleaved, but a strong influence of the nature of the I1 substitutions with respect to cleavage efficiency was observed (Supplementary Fig. S6). The cleavage efficiency for wild type pre-nisin A was 94.3 ± 1.7% but lower for the mutants I1M, I1L, I1A and I1V (72.3 ± 1.4%, 72.4 ± 1.3%, 81.0 ± 1.8% and 58.1± 2.8%, respectively). […] This holds especially in those cases, where the amino acid at position one was exchanged to a charged amino acid (e.g. I1K 9.2 ± 1.3%; I1E 9.5 ± 0.7%) or contained a bulky hydrophobic side chain (e.g. I1F 12.9 ± 0.8%; I1W 5.7 ± 0.2%; I1Y 22.6 ± 2.3%) (Supplementary Fig. S6). […] Even after an extensive prolongation of the incubation time, no leader peptide peak was detected in the RP-HPLC chromatogram (Supplementary Fig. S4). It is important to stress in this context that the cleavage efficiencies cannot be determined from Tricine-SDS gels (20%). Here, the leader peptide as well as the core peptide would co-migrate, which obviously will falsify the staining results.\nPre-nisin and its variants were expressed and purified as previously described[41],[49],[69]. The purity of pre-nisin and its variants was controlled by Tricine-SDS-PAGE (20%)[70]. The activation of all variants was performed by NisP cleavage overnight at 8 °C. Pre-nisin cleavage and its variants was monitored by RP-HPLC[49],[69].\nPre-nisin and the activated nisin variants were analysed by RP-HPLC (Agilent Technologies 1260 Infinity II) with a LiChrospher WP 300 RP-18 end-capped column and an acetonitrile/water solvent system. The cleavage efficiency and the concentration of active lantibiotic was calculated as described previously[49],[69].", "units": {"cleavage efficiency by NisP": "%"}, "values": [{"smiles": "C=C(NC(=O)[C@@H](NC(=O)[C@H](Cc1c[nH]cn1)NC(=O)[C@@H](NC(=O)[C@H](CO)NC(=O)[C@@H]1CS[C@@H](C)[C@H]2NC(=O)[C@H](C)NC(=O)[C@H](NC(=O)[C@H](CCCCN)NC(=O)[C@H](CCSC)NC(=O)[C@H](CC(N)=O)NC(=O)[C@@H]3CS[C@@H](C)[C@@H](NC(=O)[C@H](CCCCN)NC(=O)[C@@H]4CS[C@@H](C)[C@@H](NC(=O)[C@@H]5CSC[C@@H](NC(=O)/C(=C/C)NC(=O)[C@H](C)N)C(=O)N[C@@H]([C@@H](C)CC)C(=O)NC(=C)C(=O)N[C@@H](CC(C)C)C(=O)N5)C(=O)N5CCC[C@H]5C(=O)NCC(=O)N4)C(=O)NCC(=O)N[C@@H](C)C(=O)N[C@@H](CC(C)C)C(=O)N[C@@H](CCSC)C(=O)NCC(=O)N3)[C@H](C)SC[C@H](NC2=O)C(=O)N[C@@H](Cc2c[nH]cn2)C(=O)N1)[C@@H](C)CC)C(C)C)C(=O)N[C@@H](CCCCN)C(=O)O", "note": "[I1A]", "cleavage efficiency by NisP": "81.0 ± 1.8"}, {"smiles": "C=C(NC(=O)[C@@H](NC(=O)[C@H](Cc1c[nH]cn1)NC(=O)[C@@H](NC(=O)[C@H](CO)NC(=O)[C@@H]1CS[C@@H](C)[C@H]2NC(=O)[C@H](C)NC(=O)[C@H](NC(=O)[C@H](CCCCN)NC(=O)[C@H](CCSC)NC(=O)[C@H](CC(N)=O)NC(=O)[C@@H]3CS[C@@H](C)[C@@H](NC(=O)[C@H](CCCCN)NC(=O)[C@@H]4CS[C@@H](C)[C@@H](NC(=O)[C@@H]5CSC[C@@H](NC(=O)/C(=C/C)NC(=O)[C@@H](N)CCC(=O)O)C(=O)N[C@@H]([C@@H](C)CC)C(=O)NC(=C)C(=O)N[C@@H](CC(C)C)C(=O)N5)C(=O)N5CCC[C@H]5C(=O)NCC(=O)N4)C(=O)NCC(=O)N[C@@H](C)C(=O)N[C@@H](CC(C)C)C(=O)N[C@@H](CCSC)C(=O)NCC(=O)N3)[C@H](C)SC[C@H](NC2=O)C(=O)N[C@@H](Cc2c[nH]cn2)C(=O)N1)[C@@H](C)CC)C(C)C)C(=O)N[C@@H](CCCCN)C(=O)O", "note": "[I1E]", "cleavage efficiency by NisP": "9.5 ± 0.7"}, {"smiles": "C=C(NC(=O)[C@@H](NC(=O)[C@H](Cc1c[nH]cn1)NC(=O)[C@@H](NC(=O)[C@H](CO)NC(=O)[C@@H]1CS[C@@H](C)[C@H]2NC(=O)[C@H](C)NC(=O)[C@H](NC(=O)[C@H](CCCCN)NC(=O)[C@H](CCSC)NC(=O)[C@H](CC(N)=O)NC(=O)[C@@H]3CS[C@@H](C)[C@@H](NC(=O)[C@H](CCCCN)NC(=O)[C@@H]4CS[C@@H](C)[C@@H](NC(=O)[C@@H]5CSC[C@@H](NC(=O)/C(=C/C)NC(=O)[C@@H](N)Cc6ccccc6)C(=O)N[C@@H]([C@@H](C)CC)C(=O)NC(=C)C(=O)N[C@@H](CC(C)C)C(=O)N5)C(=O)N5CCC[C@H]5C(=O)NCC(=O)N4)C(=O)NCC(=O)N[C@@H](C)C(=O)N[C@@H](CC(C)C)C(=O)N[C@@H](CCSC)C(=O)NCC(=O)N3)[C@H](C)SC[C@H](NC2=O)C(=O)N[C@@H](Cc2c[nH]cn2)C(=O)N1)[C@@H](C)CC)C(C)C)C(=O)N[C@@H](CCCCN)C(=O)O", "note": "[I1F]", "cleavage efficiency by NisP": "12.9 ± 0.8"}, {"smiles": "C=C(NC(=O)[C@@H](NC(=O)[C@H](Cc1c[nH]cn1)NC(=O)[C@@H](NC(=O)[C@H](CO)NC(=O)[C@@H]1CS[C@@H](C)[C@H]2NC(=O)[C@H](C)NC(=O)[C@H](NC(=O)[C@H](CCCCN)NC(=O)[C@H](CCSC)NC(=O)[C@H](CC(N)=O)NC(=O)[C@@H]3CS[C@@H](C)[C@@H](NC(=O)[C@H](CCCCN)NC(=O)[C@@H]4CS[C@@H](C)[C@@H](NC(=O)[C@@H]5CSC[C@@H](NC(=O)/C(=C/C)NC(=O)[C@@H](N)CCCCN)C(=O)N[C@@H]([C@@H](C)CC)C(=O)NC(=C)C(=O)N[C@@H](CC(C)C)C(=O)N5)C(=O)N5CCC[C@H]5C(=O)NCC(=O)N4)C(=O)NCC(=O)N[C@@H](C)C(=O)N[C@@H](CC(C)C)C(=O)N[C@@H](CCSC)C(=O)NCC(=O)N3)[C@H](C)SC[C@H](NC2=O)C(=O)N[C@@H](Cc2c[nH]cn2)C(=O)N1)[C@@H](C)CC)C(C)C)C(=O)N[C@@H](CCCCN)C(=O)O", "note": "[I1K]", "cleavage efficiency by NisP": "9.2 ± 1.3"}, {"smiles": "C=C(NC(=O)[C@@H](NC(=O)[C@H](Cc1c[nH]cn1)NC(=O)[C@@H](NC(=O)[C@H](CO)NC(=O)[C@@H]1CS[C@@H](C)[C@H]2NC(=O)[C@H](C)NC(=O)[C@H](NC(=O)[C@H](CCCCN)NC(=O)[C@H](CCSC)NC(=O)[C@H](CC(N)=O)NC(=O)[C@@H]3CS[C@@H](C)[C@@H](NC(=O)[C@H](CCCCN)NC(=O)[C@@H]4CS[C@@H](C)[C@@H](NC(=O)[C@@H]5CSC[C@@H](NC(=O)/C(=C/C)NC(=O)[C@@H](N)CC(C)C)C(=O)N[C@@H]([C@@H](C)CC)C(=O)NC(=C)C(=O)N[C@@H](CC(C)C)C(=O)N5)C(=O)N5CCC[C@H]5C(=O)NCC(=O)N4)C(=O)NCC(=O)N[C@@H](C)C(=O)N[C@@H](CC(C)C)C(=O)N[C@@H](CCSC)C(=O)NCC(=O)N3)[C@H](C)SC[C@H](NC2=O)C(=O)N[C@@H](Cc2c[nH]cn2)C(=O)N1)[C@@H](C)CC)C(C)C)C(=O)N[C@@H](CCCCN)C(=O)O", "note": "[I1L]", "cleavage efficiency by NisP": "72.4 ± 1.3"}, {"smiles": "C=C(NC(=O)[C@@H](NC(=O)[C@H](Cc1c[nH]cn1)NC(=O)[C@@H](NC(=O)[C@H](CO)NC(=O)[C@@H]1CS[C@@H](C)[C@H]2NC(=O)[C@H](C)NC(=O)[C@H](NC(=O)[C@H](CCCCN)NC(=O)[C@H](CCSC)NC(=O)[C@H](CC(N)=O)NC(=O)[C@@H]3CS[C@@H](C)[C@@H](NC(=O)[C@H](CCCCN)NC(=O)[C@@H]4CS[C@@H](C)[C@@H](NC(=O)[C@@H]5CSC[C@@H](NC(=O)/C(=C/C)NC(=O)[C@@H](N)CCSC)C(=O)N[C@@H]([C@@H](C)CC)C(=O)NC(=C)C(=O)N[C@@H](CC(C)C)C(=O)N5)C(=O)N5CCC[C@H]5C(=O)NCC(=O)N4)C(=O)NCC(=O)N[C@@H](C)C(=O)N[C@@H](CC(C)C)C(=O)N[C@@H](CCSC)C(=O)NCC(=O)N3)[C@H](C)SC[C@H](NC2=O)C(=O)N[C@@H](Cc2c[nH]cn2)C(=O)N1)[C@@H](C)CC)C(C)C)C(=O)N[C@@H](CCCCN)C(=O)O", "note": "[I1M]", "cleavage efficiency by NisP": "72.3 ± 1.4"}, {"smiles": "C=C(NC(=O)[C@@H](NC(=O)[C@H](Cc1c[nH]cn1)NC(=O)[C@@H](NC(=O)[C@H](CO)NC(=O)[C@@H]1CS[C@@H](C)[C@H]2NC(=O)[C@H](C)NC(=O)[C@H](NC(=O)[C@H](CCCCN)NC(=O)[C@H](CCSC)NC(=O)[C@H](CC(N)=O)NC(=O)[C@@H]3CS[C@@H](C)[C@@H](NC(=O)[C@H](CCCCN)NC(=O)[C@@H]4CS[C@@H](C)[C@@H](NC(=O)[C@@H]5CSC[C@@H](NC(=O)/C(=C/C)NC(=O)[C@@H](N)C(C)C)C(=O)N[C@@H]([C@@H](C)CC)C(=O)NC(=C)C(=O)N[C@@H](CC(C)C)C(=O)N5)C(=O)N5CCC[C@H]5C(=O)NCC(=O)N4)C(=O)NCC(=O)N[C@@H](C)C(=O)N[C@@H](CC(C)C)C(=O)N[C@@H](CCSC)C(=O)NCC(=O)N3)[C@H](C)SC[C@H](NC2=O)C(=O)N[C@@H](Cc2c[nH]cn2)C(=O)N1)[C@@H](C)CC)C(C)C)C(=O)N[C@@H](CCCCN)C(=O)O", "note": "[I1V]", "cleavage efficiency by NisP": "58.1± 2.8"}, {"smiles": "C=C(NC(=O)[C@@H](NC(=O)[C@H](Cc1c[nH]cn1)NC(=O)[C@@H](NC(=O)[C@H](CO)NC(=O)[C@@H]1CS[C@@H](C)[C@H]2NC(=O)[C@H](C)NC(=O)[C@H](NC(=O)[C@H](CCCCN)NC(=O)[C@H](CCSC)NC(=O)[C@H](CC(N)=O)NC(=O)[C@@H]3CS[C@@H](C)[C@@H](NC(=O)[C@H](CCCCN)NC(=O)[C@@H]4CS[C@@H](C)[C@@H](NC(=O)[C@@H]5CSC[C@@H](NC(=O)/C(=C/C)NC(=O)[C@@H](N)Cc6c[nH]c7ccccc67)C(=O)N[C@@H]([C@@H](C)CC)C(=O)NC(=C)C(=O)N[C@@H](CC(C)C)C(=O)N5)C(=O)N5CCC[C@H]5C(=O)NCC(=O)N4)C(=O)NCC(=O)N[C@@H](C)C(=O)N[C@@H](CC(C)C)C(=O)N[C@@H](CCSC)C(=O)NCC(=O)N3)[C@H](C)SC[C@H](NC2=O)C(=O)N[C@@H](Cc2c[nH]cn2)C(=O)N1)[C@@H](C)CC)C(C)C)C(=O)N[C@@H](CCCCN)C(=O)O", "note": "[I1W]", "cleavage efficiency by NisP": "5.7 ± 0.2"}]}]}
